Among the data in US20090131468A1, “Bis-(Sulfonylamino) Derivatives in Therapy 065” (AstraZeneca AB, priority 2007, published 2009) are IC50 values, retold here.

The experiment addresses T1, human mPGES-1 (Homo sapiens, UniProt O14684).
T1 sequence (O14684 1-152): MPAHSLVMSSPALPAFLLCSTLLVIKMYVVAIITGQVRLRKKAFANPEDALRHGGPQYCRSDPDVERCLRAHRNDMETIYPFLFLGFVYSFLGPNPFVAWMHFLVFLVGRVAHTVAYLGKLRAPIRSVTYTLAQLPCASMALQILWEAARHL
Kind of experiment: Microsomal prostaglandin E synthase biochemical assay. Particulars: microsome preparation containing human mPGES-1; PGH2 10.8 μM, GSH 2.5 mM, pH 6.8; PGE2 quantified by HTRF; average of at least n=2. In short, it runs like this: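 Human mPGES-1 microsomes (from IL-1β-stimulated A549 cells or Sf9 cells expressing human mPGES-1) were pre-incubated 15 min with compound in potassium phosphate buffer pH 6.8 with GSH. PGH2 was then added, and the reaction was stopped after one minute with acidic ferric chloride/citrate. PGE2 was read by HTRF, and IC50 was taken from control-normalised activity.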

The compound `CC(C)Oc1cc(C(=O)NS(=O)(=O)c2ccccc2S(N)(=O)=O)cnc1C#CC1CCCC1` [Example 143, 6-(Cyclopentylethynyl)-5-isopropoxy-N-(2-sulfamoylphenylsulfonyl)nicotinamide] yielded a concentration for half-maximal inhibition (IC50) of 14 nM.
On to `CC(C)Oc1cc(C(=O)NS(=O)(=O)c2ccccc2S(N)(=O)=O)cnc1C#CC1CCCCC1` [Example 144, 6-(Cyclohexylethynyl)-5-isopropoxy-N-(2-sulfamoylphenylsulfonyl)nicotinamide], for which half-maximal inhibition (IC50) was put at 11 nM.
With `COC(C)(C)CCOc1cc(C(=O)NS(=O)(=O)c2ccccc2S(N)(=O)=O)ccc1-c1cc2ccccc2o1` [Example 145, 4-(Benzofuran-2-yl)-3-(3-methoxy-3-methylbutoxy)-N-(2-sulfamoylphenylsulfonyl)-benzamide] the figure was 23 nM; with `NS(=O)(=O)c1ccccc1S(=O)(=O)NC(=O)c1ccc(C#CC2CCCC2)c(F)c1` [Example 146, 4-(Cyclopentylethynyl)-3-fluoro-N-(2-sulfamoylphenylsulfonyl)benzamide], 15 nM; with `NS(=O)(=O)c1ccccc1S(=O)(=O)NC(=O)c1cnc(-c2cc3ccccc3o2)c(Cl)c1` [Example 147, 6-(Benzofuran-2-yl)-5-chloro-N-(2-sulfamoylphenylsulfonyl)nicotinamide], 54 nM.
With `NS(=O)(=O)c1ccccc1S(=O)(=O)NC(=O)c1cnc(C#CC2CCCC2)c(Cl)c1` [Example 148, 5-Chloro-6-(cyclopentylethynyl)-N-(2-sulfamoylphenylsulfonyl)nicotinamide] the figure was 22 nM.
With `CC(C)(C)C#Cc1ncc(C(=O)NS(=O)(=O)c2ccccc2S(N)(=O)=O)cc1Cl` [Example 149, 5-Chloro-6-(3,3-dimethylbut-1-ynyl)-N-(2-sulfamoylphenylsulfonyl)nicotinamide] the figure was 64 nM; with `NS(=O)(=O)c1ccccc1S(=O)(=O)NC(=O)c1ccc(-c2cc3ccccc3o2)cc1C(F)(F)F` [Example 150, 4-(Benzofuran-2-yl)-N-(2-sulfamoylphenylsulfonyl)-2-(trifluoromethyl)benzamide], 360 nM.
Take `CC(C)(C)C#Cc1ccc(C(=O)NS(=O)(=O)c2ccccc2S(N)(=O)=O)c(C(F)(F)F)c1` [Example 151, 4-(3,3-Dimethylbut-1-ynyl)-N-(2-sulfamoylphenylsulfonyl)-2-(trifluoromethyl)-benzamide]: inhibition was half-maximal at 380 nM (IC50).
With `NS(=O)(=O)c1ccccc1S(=O)(=O)NC(=O)c1c(F)cc(-c2cc3ccccc3o2)cc1F` [Example 152, 4-(Benzofuran-2-yl)-2,6-difluoro-N-(2-sulfamoylphenylsulfonyl)benzamide] the figure was 570 nM.
The figure for `NS(=O)(=O)c1ccccc1S(=O)(=O)NC(=O)c1c(F)cc(C#CC2CCCC2)cc1F` [Example 153, 4-(Cyclopentylethynyl)-2,6-difluoro-N-(2-sulfamoylphenylsulfonyl)benzamide] is 330 nM; for `CC(C)(O)C#Cc1cc(C(=O)NS(=O)(=O)c2ccccc2S(N)(=O)=O)ccc1-c1cc2ccccc2o1` [Example 154, 4-(Benzofuran-2-yl)-3-(3-hydroxy-3-methylbut-1-ynyl)-N-(2-sulfamoylphenyl-sulfonyl)benzamide] it is 9.9 nM.
The figure for `CC(C)(O)C#Cc1cc(C(=O)NS(=O)(=O)c2ccccc2S(N)(=O)=O)ccc1OCc1ccccc1` [Example 156, 4-(Benzyloxy)-3-(3-hydroxy-3-methylbut-1-ynyl)-N-(2-sulfamoylphenylsulfonyl)-benzamide] is 110 nM; for `NS(=O)(=O)c1ccccc1S(=O)(=O)NC(=O)c1ccc2[nH]c(Cc3ccccc3)cc2c1` [Example 158, 2-Benzyl-N-(2-sulfamoylphenylsulfonyl)-1H-indole-5-carboxamide] it is 580 nM; for `NS(=O)(=O)c1ccccc1S(=O)(=O)NC(=O)c1ccc(C#CC2CC2)c2c1OC(F)(F)O2` [Example 159, 7-(Cyclopropylethynyl)-2,2-difluoro-N-(2-sulfamoylphenylsulfonyl)-benzo[d][1,3]dioxole-4-carboxamide] it is 63 nM.
`NS(=O)(=O)c1ccccc1S(=O)(=O)NC(=O)c1ccc(C#CC2CC2)c(OCCC(F)(F)F)c1` [Example 160, 4-(Cyclopropylethynyl)-N-(2-sulfamoylphenylsulfonyl)-3-(3,3,3-trifluoropropoxy)-benzamide] showed a 50% inhibitory concentration (IC50) of 32 nM.
With `NS(=O)(=O)c1cc(CO)ccc1S(=O)(=O)NC(=O)c1ccc(-c2cc3ccccc3o2)cc1` [Example 161, 4-(Benzofuran-2-yl)-N-(4-(hydroxymethyl)-2-sulfamoylphenylsulfonyl)benzamide] the figure was 320 nM; with `NS(=O)(=O)c1ccccc1S(=O)(=O)NC(=O)c1cnc2ccccc2c1` [Example 162, Benzene-1,2-disulfonic acid 1-amide 2[(quinoline-3-carbonyl)-amide]], 11000 nM.
